The values that follow come from PubChem BioAssay AID330 (DTP/NCI, 2004).

Where “and” joins values, the source holds several entries; their conditions need not be identical. Identical values can stand only once. Toxic doses and inconclusive results are not listed.

The assay relates to P388 leukemia ip, CD2F1 mice, survival T/C. The assay can be described thus: NCI In Vivo Anticancer Drug Screen. Data for tumor model P388 Leukemia (intraperitoneal) in CD2F1 (CDF1) mice. The conditions noted are these: endpoint: median survival time, higher = longer survival. The method, boiled down: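 Mice carrying the transplanted tumor received test compound or vehicle. Survival was recorded in each group, and the value is the treated-group measurement divided by that of the vehicle-treated control group.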

The mark [1] stands for this setting: dose: 50.0 mg/kg/injection, schedule: Q01DX009 (ip), vehicle: saline.
The mark [2] stands for this setting: dose: 100.0 mg/kg/injection, schedule: Q01DX009 (ip), vehicle: saline.
Setting [3] is: dose: 200.0 mg/kg/injection, schedule: Q01DX009 (ip), vehicle: saline.
Setting [4] is: dose: 50.0 mg/kg/injection, schedule: Q01DX009 (ip), vehicle: saline with Tween-80.
Where [5] appears, read: dose: 100.0 mg/kg/injection, schedule: Q01DX009 (ip), vehicle: saline with Tween-80.
Where [6] appears, read: dose: 200.0 mg/kg/injection, schedule: Q01DX009 (ip), vehicle: saline with Tween-80.
Setting [7] is: dose: 100.0 mg/kg/injection, schedule: Q01DX009 (ip), vehicle: Klucel (hydroxypropylcellulose) (HPC).
[8] abbreviates: dose: 200.0 mg/kg/injection, schedule: Q01DX009 (ip), vehicle: Klucel (hydroxypropylcellulose) (HPC).
Setting [9] is: dose: 12.5 mg/kg/injection, schedule: Q01DX009 (ip), vehicle: Klucel (hydroxypropylcellulose) (HPC).
The mark [10] stands for this setting: dose: 25.0 mg/kg/injection, schedule: Q01DX009 (ip), vehicle: Klucel (hydroxypropylcellulose) (HPC).
Setting [11] is: dose: 50.0 mg/kg/injection, schedule: Q01DX009 (ip), vehicle: Klucel (hydroxypropylcellulose) (HPC).
Where [12] appears, read: dose: 50.0 mg/kg/injection, schedule: Q01DX005 (ip), vehicle: saline with Tween-80.
The mark [13] stands for this setting: dose: 100.0 mg/kg/injection, schedule: Q01DX005 (ip), vehicle: saline with Tween-80.
The mark [14] stands for this setting: dose: 200.0 mg/kg/injection, schedule: Q01DX005 (ip), vehicle: saline with Tween-80.
Where [15] appears, read: dose: 12.5 mg/kg/injection, schedule: Q01DX009 (ip), vehicle: saline with Tween-80.

As to `CC1(C)C(=O)C(C)(C)C1O`, the T/C by setting is: under setting [1], 98 % of control; under setting [2], 95 % of control; under setting [3], 98 % of control.

For the molecule `CC1=C[S+](c2ccccc2)c2cccc3cc4ccccc4c1c23` (configuration not stated), the T/C is 100 % of control (dose: 0.62 mg/kg/injection, schedule: Q04DX003 (ip), vehicle: saline); 100 % of control (dose: 1.25 mg/kg/injection, schedule: Q04DX003 (ip), vehicle: saline); 104 % of control (dose: 2.5 mg/kg/injection, schedule: Q04DX003 (ip), vehicle: saline).

On to `CCOC(=O)C(C#N)(CCC(=NC(C)(C)C)Nc1c(Cl)cccc1Cl)CCC(=NC(C)(C)C)Nc1c(Cl)cccc1Cl` (configuration not stated), for which the T/C reads like this: under setting [4], 105 % of control; under setting [5], 101 % of control; under setting [6], 92 % of control.

Consider `Cc1cn(C2OC(CO)C(O)C2O)c(=O)nc1N` (configuration not stated), for which the T/C is 104 % of control (dose: 25.0 mg/kg/injection, schedule: Q01DX005 (ip), vehicle: water); 101 % of control (dose: 50.0 mg/kg/injection, schedule: Q01DX005 (ip), vehicle: water); 100 % of control (dose: 100.0 mg/kg/injection, schedule: Q01DX005 (ip), vehicle: water); 96 % of control (dose: 200.0 mg/kg/injection, schedule: Q01DX005 (ip), vehicle: water).

With `Clc1cccnc1Cl`, the T/C is 100 % of control and 110 % of control under setting [1]; 103 % of control and 105 % of control under setting [2]; 99 % of control and 106 % of control under setting [3]; 97 % of control (dose: 400.0 mg/kg/injection, schedule: Q01DX009 (ip), vehicle: saline).

As to `CCCCCCCCCCCCOC(=O)c1ccc(Br)cc1`, the T/C was 104 % of control under setting [7] and 102 % of control under setting [8].

Consider `Cc1ccc2c(=O)[nH]cnc2c1`, for which the T/C under setting [9] is 100 % of control; the T/C under setting [10] was 98 % of control and 100 % of control; the T/C under setting [11] is 99 % of control and 103 % of control; the T/C under setting [7] was 101 % of control and 110 % of control and 97 % of control; the T/C under setting [8] was 113 % of control.

With `O=C(CC1=NC2NN(c3ccccc3)C(=O)C2=C1CC(=O)c1cccc2ccccc12)c1cccc2ccccc12` (configuration not stated), the T/C under setting [12] is 107 % of control, the T/C under setting [13] was 107 % of control and the T/C under setting [14] was 107 % of control.

On to `COc1cccc2c1C(=O)c1c(OC)c3c(c(OC)c1C2=O)C[C@@](O)(C(C)=O)C[C@@H]3OC1CC(N)C(O)C(C)O1` (some centres not stated), for which the T/C is 103 % of control (dose: 0.5 mg/kg/injection, schedule: Q01DX009 (ip), vehicle: water); 110 % of control (dose: 1.0 mg/kg/injection, schedule: Q01DX009 (ip), vehicle: water); 102 % of control (dose: 2.0 mg/kg/injection, schedule: Q01DX009 (ip), vehicle: water); 106 % of control (dose: 4.0 mg/kg/injection, schedule: Q01DX009 (ip), vehicle: water); 114 % of control and 119 % of control (dose: 8.0 mg/kg/injection, schedule: Q01DX009 (ip), vehicle: water); 111 % of control and 123 % of control (dose: 16.0 mg/kg/injection, schedule: Q01DX009 (ip), vehicle: water). The T/C (dose: 128.0 mg/kg/injection, schedule: Q01DX009 (ip), vehicle: water) is 169 % of control.

Turning to `CCOC(=O)OCC1OC(OC(C)=O)C(OC(C)=O)C(OC(=O)OCC)C1OC(=O)OCC` (configuration not stated), the T/C was 95 % of control (dose: 12.5 mg/kg/injection, schedule: Q01DX009 (ip), vehicle: water); 99 % of control (dose: 25.0 mg/kg/injection, schedule: Q01DX009 (ip), vehicle: water); 91 % of control (dose: 50.0 mg/kg/injection, schedule: Q01DX009 (ip), vehicle: water); 99 % of control (dose: 100.0 mg/kg/injection, schedule: Q01DX009 (ip), vehicle: water); 90 % of control (dose: 200.0 mg/kg/injection, schedule: Q01DX009 (ip), vehicle: water).

As to `COS(=O)(=O)OC1(SC)C=C(c2ccccc2)SS1` (configuration not stated), the T/C runs as follows: (dose: 12.5 mg/kg/injection, schedule: Q01DX001 (ip), vehicle: saline) 96 % of control; (dose: 25.0 mg/kg/injection, schedule: Q01DX001 (ip), vehicle: saline) 109 % of control and 121 % of control; (dose: 50.0 mg/kg/injection, schedule: Q01DX001 (ip), vehicle: saline) 118 % of control and 122 % of control.

For the molecule `Cc1ccc(Oc2nc(=O)c3c(o2)CC(C)(C)C3)cc1`, the T/C by setting is: under setting [15], 106 % of control; (dose: 25.0 mg/kg/injection, schedule: Q01DX009 (ip), vehicle: saline with Tween-80) 106 % of control and 112 % of control; under setting [4], 103 % of control and 106 % of control and 114 % of control; under setting [5], 120 % of control and 96 % of control.

For `COc1ccc(OC)c(C(O)P(=O)(c2ccccc2)c2ccccc2)c1` (configuration not stated), the T/C runs as follows: under setting [11], 98 % of control; under setting [7], 93 % of control; under setting [8], 93 % of control.

`Cc1[nH]nc(C(N)=O)c1N=NN(C)C`: the T/C was 113 % of control under setting [15]; 204 % of control and 209 % of control under setting [4]; 122 % of control (dose: 50.0 mg/kg/injection, schedule: Q04DX003 (ip), vehicle: saline with Tween-80); 150 % of control (dose: 100.0 mg/kg/injection, schedule: Q04DX003 (ip), vehicle: saline with Tween-80); 159 % of control (dose: 132.0 mg/kg/injection, schedule: Q04DX003 (ip), vehicle: saline with Tween-80); 154 % of control (dose: 200.0 mg/kg/injection, schedule: Q04DX003 (ip), vehicle: saline with Tween-80).

As to `Cc1nc(Cl)c2c3c(sc2n1)CCCC3`, the T/C by setting is: (dose: 18.75 mg/kg/injection, schedule: Q01DX001 (ip), vehicle: saline sonified) 95 % of control; (dose: 37.5 mg/kg/injection, schedule: Q01DX001 (ip), vehicle: saline sonified) 100 % of control; (dose: 75.0 mg/kg/injection, schedule: Q01DX001 (ip), vehicle: saline sonified) 100 % of control.

As for `Cc1ccc2nc3c4ccccc4c4ccccc4c3nc2c1C`, the T/C was 94 % of control under setting [12], 86 % of control under setting [13] and 89 % of control under setting [14].

On to `C=CCNC(=O)c1ccccc1SC(C)=O`, for which the T/C under setting [4] is 117 % of control and 119 % of control; the T/C under setting [5] was 120 % of control; the T/C under setting [6] was 114 % of control.

Turning to `C=C(C)C(=O)OC1C/C(CO)=C\C(OC(C)=O)C/C(C)=C/C2OC(=O)C(=C)C21` (configuration not stated), the T/C runs as follows: (dose: 3.75 mg/kg/injection, schedule: Q01DX009 (ip), vehicle: saline + alcohol) 113 % of control; (dose: 7.5 mg/kg/injection, schedule: Q01DX009 (ip), vehicle: saline + alcohol) 115 % of control; (dose: 15.0 mg/kg/injection, schedule: Q01DX009 (ip), vehicle: saline + alcohol) 120 % of control.

Take `COC1=CC(=O)C(Cc2ccc3c(c2)OCO3)=CC1=O`: the T/C was 101 % of control (dose: 2.5 mg/kg/injection, schedule: Q01DX009 (ip), vehicle: saline with Tween-80); 99 % of control (dose: 5.0 mg/kg/injection, schedule: Q01DX009 (ip), vehicle: saline with Tween-80); 101 % of control (dose: 10.0 mg/kg/injection, schedule: Q01DX009 (ip), vehicle: saline with Tween-80).

In the case of `O=c1c2ccccc2oc2nc3ccc(Cl)cc3n12`, the T/C under setting [12] was 112 % of control, the T/C under setting [13] was 101 % of control and the T/C under setting [14] was 98 % of control.

As for `Nc1ncnc2c1C=C(B(O)O)B(O)N2`, the T/C by setting is: (dose: 6.25 mg/kg/injection, schedule: Q01DX009 (ip), vehicle: Klucel (hydroxypropylcellulose) (HPC)) 97 % of control; under setting [9], 99 % of control; under setting [10], 104 % of control.

As to `Cc1cc(=O)[nH]c2ccc3ccccc3c12`, the T/C reads like this: (dose: 12.5 mg/kg/injection, schedule: Q01DX005 (ip), vehicle: Klucel (hydroxypropylcellulose) (HPC)) 91 % of control; (dose: 25.0 mg/kg/injection, schedule: Q01DX005 (ip), vehicle: Klucel (hydroxypropylcellulose) (HPC)) 91 % of control; (dose: 50.0 mg/kg/injection, schedule: Q01DX005 (ip), vehicle: Klucel (hydroxypropylcellulose) (HPC)) 86 % of control.

As to `[O-][n+]1c(C2=C(N3CCCC3)c3ccccc3C2)c(Cl)c(Cl)c(Cl)c1C1=C(N2CCCC2)c2ccccc2C1`, the T/C (dose: 25.0 mg/kg/injection, schedule: Q01DX005 (ip), vehicle: saline with Tween-80) is 102 % of control; the T/C under setting [12] is 103 % of control; the T/C under setting [13] is 93 % of control.
